Experimental data reported in paper PMC6386929, “Evaluation of the Antimicrobial Activity of Cationic Peptides Loaded in Surface-Modified Nanoliposomes against Foodborne Bacteria” (International Journal of Molecular Sciences, 2019).
Where no end group is shown, it is not given here.

Key:
E. coli ATCC25922 = assay type: cell-based, Escherichia coli
From the text: (§1) L. monocytogenes ATCCbaa751 and E. coli ATCC25922, were obtained from the American Type Culture Collection (ATCC; Rockville, MD, USA). NovaPEG Rink Amida resin, Fmoc-protected amino acids, 2-(1H-benzotriazole-1-yl)-1,1,3,3-tetramethyluronium tetrafluoro-borate (TBTU), Piperidine, N,N-Diisopropylethylamine (DIEA), Ninhydrin, Dimethylformamide (DMF), Trifluoroacetic acid (TFA), 1,2-Ethanedithiol (EDT), Triisopropylsilane (TIS) and Mueller Hinton Broth (MHB) were purchased in Merck (Darmstadt, Germany). Cholesterol, Epikuron 200® and dioleoyl-phosphatidyl-ethanolamine (DOPE) were obtained from Avanti Polar Lipids (Alabaster, Alabama, USA). Eudragit® E-100 was purchased in Evonik (Darmstadt, Germany). Ampicillin (Fersinsa Gb) was supplied by Tecnoquímicas S.A. (Cali, Colombia) and Gentamicin solution (GENFAR®, Cali, Colombia) was purchased from a local pharmacy. The datasets used and materials using during this study are available from the corresponding author on reasonable request.
(§2) Microbial susceptibility tests were performed according to clinical and laboratory standards institute (CLSI) standard methods. Bacteria were inoculated in MHB and incubated overnight at 37 °C. […] After incubation, the minimum inhibitory concentration (MIC) was determined by visual analysis.

[1] = Surface tension (pendant drop) and aggregation index (dual-angle DLS) of peptides in aqueous media; assay type: physicochemical; conditions: PBS pH 7.2, 138 mM NaCl; peptide 0–50 µM; pendant drop and dual-angle DLS (173° and 13°); triplicate
Description: Surface tension measurements of the peptides were carried out using a contact angle meter (OCA15EC Dataphysics Instruments, Filderstadt, Germany) with a software driver (version 4.5.14 SCA22), where the data capture was recorded using an IDS video camera. For this, the pendant-drop method was performed in triplicate, where peptide concentrations between 0 and 50 µM were prepared with ultrapure water and phosphate buffer saline pH 7.2 (PBS, 138 mM NaCl, 3 mM KCl, 1.5 mM NaH2PO4, 8.1 mM Na2HPO4). The samples of peptides +2 and +5 were prepared in serial concentrations between 0 and 50 µM in PBS buffer pH 7.2 at 138 mM of ionic strength. An aliquot was analysed immediately after preparation. Dual angle DLS measurements (173° and 13°) of automatic duration were carried out using a Zetasizer Nano ZSP (Malvern Instruments, Worcestershire, United Kingdom). The Aggregation Index is a parameter based on the mean z-average size measured for the two angles of scattering according to the equation: (1) Aggregation index=[Zfwd/Zbkd−1] where, Zfwd is the average particle size detected by forward scatter optics at 13°. Trace amounts of aggregate are often highly useful for the enhanced detection of large protein aggregates, whereas Zbkd is the particle size average at a detection angle of 173° (non-invasive back-scatter).

[2] = system: L. monocytogenes ATCCbaa751; assay type: cell-based, Listeria monocytogenes
From the text: as §1, §2

E. coli = conditions: cited from earlier work
From the text: (§3) Alyteserin-1c is an AMP comprising a 23 amino acid residue (net charge: +2) and was first isolated from norepinephrine-stimulated skin secretions from the midwife toad Alytes obstetricans. […] Although AMPs are an alternative means for eliminating bacteria in foods, due to their biocompatibility, biodegradability, broad spectrum of activity and potent bactericidal properties, most ...

human erythrocytes = conditions: cited from earlier work
From the text: as §3

Sequence: GLKEIFKAGLGSLVKGIAAHVAS [peptide +2, Alyteserin-1c]
- MIC (E. coli ATCC25922): 15.2 µM
- concentration at which changes in surface tension and aggregation index are achieved [1]: 20 µM
- MIC [2]: 125 µM
- MIC (E. coli): 25 µM
- hemolytic activity (human erythrocytes): low hemolytic activity

Sequence: GLKRIFKSGLGKLVKGISAHVAS [peptide +5]
- MIC (E. coli ATCC25922): 62.5 µM
- concentration at which changes in surface tension and aggregation index are achieved [1]: 5 to 10 µM
- MIC [2]: 62.5 µM
